# Experimental data published in US7741346B2, “Angiogenesis inhibitor” (Santen Pharmaceutical Co., Ltd., priority 2001, dated 2010).
# System: normal human umbilical vein endotherial cells (HUVEC)
# Experiment: VEGF-induced HUVEC proliferation (in vitro angiogenesis inhibition test)
# Type: cell-based
# Details: Homo sapiens, HUVEC, 72 h, 10 μM test compound, 10 ng/ml VEGF, three days after adding VEGF, WST-8 absorbance at 450 nm; read-out: Inhibitory rate (%) (cell growth inhibitory rate to the control)
# Method: (1) Angiogenesis Inhibition Tests Using Human Endothelial Cells
# The effects of the present compounds on the in vitro angiogenesis were evaluated by using vascular endothelial growth factor (VEGF)-induced normal human umbilical vein endotherial cells (HUVEC) proliferation system (Cancer Res., 59, 99-106 (1999)), wherein inhibitory effects of drugs on cell growth reactions induced by treating HUVEC with VEGF as an in vitro angiogenesis evaluation model.
# The present compound was dissolved in DMSO and then diluted with a medium to prepare 40 μM test compound solution.
# 2×10^3 cells/well of HUVEC was seeded onto a type I collagen coated 96-well plate. After one day, 25 μl of the 40 μM test compound solution and a 0.8% DMSO solution as a control were added to each well (final concentration; 10 μM of the test compound and 0.2% of DMSO). One hour after adding the test compound, 25 μl of 40 ng/ml VEGF solution was added to each well(final concentration; 10 ng/ml of VEGF). Three days after adding VEGF, a WST-8 assay reagent (manufactured by Dojin Chemical Co., Ltd.) was added to each well in an amount of 10 μl, and absorbance at 450 nm was measured.
# Calculating cell growth inhibitory rates (%) to the control, angiogenesis inhibitory rates of almost all of the test compounds were 80% or higher.
row,Compound,inhibition at 10 µM [%]
1,"CCCCCN(CCC12CC3CC(CC(C3)C1)C2)C(=O)NCC(C)Cc1ccncc1 (single isomer, unassigned; (-)) [Compound No. 1-120, (−)-1-[2-(1-Adamantyl)ethyl]-3-[2-methyl-3-(4-pyridyl)propyl]-1-pentylurea]",83.1
2,"CCCCCN(CCC12CC3CC(CC(C3)C1)C2)C(=O)NCCCc1ccncc1 [Compound No. 1-1, 1-[2-(1-Adamantyl)ethyl]-1-pentyl-3-[3-(4-pyridyl)propyl]urea]",83.4
3,"CN(CCN(CCC12CC3CC(CC(C3)C1)C2)C(=O)NCCCc1ccncc1)C(=O)OC(C)(C)C [Compound No. 1-26, 1-[2-(1-Adamantyl)ethyl]-[2-[N-(t-butoxycarbonyl)-N-methylamino]ethyl]-3-[3-(4-pyridyl)propyl]urea]",79.2

# System: not given
# Experiment: not given
# Details: not given
row,Compound,melting point [°C]
1,"CCCCCN(CCC12CC3CC(CC(C3)C1)C2)C(=O)NCCCc1ccnc2ccccc12 [Compound No. 1-91, 1-[2-(1-Adamantyl)ethyl]-1-pentyl-3-[3-(4-quinolyl)propyl]urea]",80.2 to 102
2,"O=C(NCCCc1ccncc1)N(CCCc1ccccc1)C(c1ccccc1)c1ccccc1 [Compound No. 1-93, 1-Diphenylmethyl-1-(3-phenylpropyl)-3-[3-(4-pyridyl)propyl]urea]",123 to 124.8
3,"CCCCCN(CCC12CC3CC(CC(C3)C1)C2)C(=O)NCCC(C)c1ccncc1 (centres unmarked) [Compound No. 1-104, 1-[2-(1-Adamantyl)ethyl]-1-pentyl-3-[3-(4-pyridyl)butyl]urea]",93 to 98
4,"O=C(NCCCc1ccncc1)N(CCCC(F)(F)F)CCC12CC3CC(CC(C3)C1)C2 [Compound No. 1-105, 1-[2-(1-Adamantyl)ethyl]-3-[3-(4-pyridyl)propyl]-1-(4,4,4-trifluorobutyl)urea]",142.6 to 145
5,"O=C(NCCCc1ccncc1)N(CCCCC(F)(F)F)CCC12CC3CC(CC(C3)C1)C2 [Compound No. 1-106, 1-[2-(1-Adamantyl)ethyl]-3-[3-(4-pyridyl)propyl]-1-(5,5,5-trifluoropentyl)urea]",116.9 to 118.9
6,"CCCCCN(CCC12CC3CC(CC(C3)C1)C2)C(=O)NCC(CC)Cc1ccncc1 (centres unmarked) [Compound No. 1-108, 1-[2-(1-Adamantyl)ethyl]-1-pentyl-3-[2-(4-pyridylmethyl)butyl]urea]",72 to 77
7,"CCCCCN(CCC12CC3CC(CC(C3)C1)C2)C(=O)NCC(Cc1ccccc1)Cc1ccncc1 (centres unmarked) [Compound No. 1-109, 1-[2-(1-Adamantyl)ethyl]-3-[2-benzyl-3-(4-pyridyl)propyl]-1-pentylurea]",111 to 116
8,"CCCCCN(CCC12CC3CC(CC(C3)C1)C2)C(=O)NCC(Cc1ccncc1)Cc1ccncc1 [Compound No. 1-110, 1-[2-(1-Adamantyl)ethyl]-3-[2,2-bis(4-pyridylmethyl)ethyl]-1-pentylurea]",124 to 136
9,"O=C(NCCCc1ccncc1)N(CCC12CC3CC(CC(C3)C1)C2)CC(F)(F)F [Compound No. 1-114, 1-[2-(1-Adamantyl)ethyl]-3-[3-(4-pyridyl)propyl]-1-(2,2,2-trifluoroethyl)urea]",106.2 to 107.3
10,"CCCCCN(CCc1ccccc1)C(=O)NCC(C)Cc1ccncc1 (centres unmarked) [Compound No. 1-115, 3-[2-Methyl-3-(4-pyridyl)propyl]-1-pentyl-1-phenethylurea]",49 to 50
11,"CC(CNC(=O)N(CCC(F)(F)F)CCC12CC3CC(CC(C3)C1)C2)Cc1ccncc1 (centres unmarked) [Compound No. 1-117, 1-[2-(1-Adamantyl)ethyl]-3-[2-methyl-3-(4-pyridyl)propyl]-1-(3,3,3-trifluoropropyl)urea]",81.1 to 84.1
12,"CCCCN(CCCC12CC3CC(CC(C3)C1)C2)C(=O)NCCCc1ccncc1 [Compound No. 1-122, 1-[3-(1-Adamantyl)propyl]-1-butyl-3-[3-(4-pyridyl)propyl]urea]",79.8 to 80.4
13,"O=C(NCCCc1ccncc1)N(CCCC12CC3CC(CC(C3)C1)C2)CC(F)(F)F [Compound No. 1-123, 1-[3-(1-Adamantyl)propyl]-3-[3-(4-pyridyl)propyl]-1-(2,2,2-trifluoroethyl)urea]",88.9 to 90
14,"CCN(CCCCC12CC3CC(CC(C3)C1)C2)C(=O)NCCCc1ccncc1 [Compound No. 1-124, 1-[4-(1-Adamantyl)butyl]-1-ethyl-3-[3-(4-pyridyl)propyl]urea]",92.7 to 93.7
15,"CCCN(CCCCC12CC3CC(CC(C3)C1)C2)C(=O)NCCCc1ccncc1 [Compound No. 1-125, 1-[4-(1-Adamantyl)butyl]-1-propyl-3-[3-(4-pyridyl)propyl]urea]",110 to 110.5
16,"CCCCCN(CCC12CC3CC(CC(C3)C1)C2)C(=O)NCCNc1ccncc1 [Compound No. 1-126, 1-[2-(1-Adamantyl)ethyl]-1-pentyl-3-[2-(4-pyridylamino)ethyl]urea]",133.9 to 134.5
17,"CCCN(CCCC12CC3CC(CC(C3)C1)C2)C(=O)NCc1ccncc1 [Compound No. 1-128, 1-[3-(1-Adamantyl)propyl]-1-propyl-3-(4-pyridyl)methylurea]",96 to 98
18,"CCN(CCCC12CC3CC(CC(C3)C1)C2)C(=O)NCCCc1ccncc1 [Compound No. 1-130, 1-[3-(1-Adamantyl)propyl]-1-ethyl-3-[3-(4-pyridyl)propyl]urea]",97.5 to 98.2
19,"CCCN(CC(=O)NC12CC3CC(CC(C3)C1)C2)C(=O)NCCCc1ccncc1 [Compound No. 1-132, 1-(1-Adamantyl)aminocarbonylmethyl-1-propyl-3-[3-(4-pyridyl)propyl]urea]",132 to 132.5
20,"CC(C)(C)OC(=O)NCCN(CCC12CC3CC(CC(C3)C1)C2)C(=O)NCCCc1ccncc1 [Compound No. 10-8, 1-[2-(1-Adamantyl)ethyl]-1-[2-[N-(t-butoxycarbonyl)amino]ethyl]-3-[3-(4-pyridyl)propyl]urea]",158 to 160.5

# Results, then the compound that gave them:
row,melting point [°C],Compound
1,82.5 to 84.9,"CCCCCN(CCC12CC3CC(CC(C3)C1)C2)C(=O)NCC(C)(C)Cc1ccncc1 [Compound No. 1-135, 1-[2-(1-Adamantyl)ethyl]-3-[2,2-dimethyl-3-(4-pyridyl)propyl]-1-pentylurea]"
2,168 to 171,"CCCCCN(CCC12CC3CC(CC(C3)C1)C2)C(=O)NCCCc1cc[n+](C)cc1.[I-] [Compound No. 4-1, 4-[3-[3-[2-(1-Adamantyl)ethyl]-3-pentylureido]propyl]-1-methylpyridinium iodide]"
3,105.6 to 107.1,"OCCN(CCc1ccccc1)C(=S)NCCCc1ccncc1 [Compound No. 7-2, 1-(2-Hydroxyethyl)-1-phenethyl-3-[3-(4-pyridyl)propyl]thiourea]"
4,99.5 to 104,"S=C1N(CCCc2ccncc2)CCN1CCc1ccccc1 [Compound No. 8-1, 1-Phenethyl-3-[3-(4-pyridyl)propyl]-2-imidazolidinethione]"
5,140 to 146,"CC(=O)NN(CCC12CC3CC(CC(C3)C1)C2)C(=O)NCCCc1ccncc1 [Compound No. 10-1, 1-Acetylamino-1-[2-(1-adamantyl)ethyl]-3-[3-(4-pyridyl)propyl]urea]"
6,164.9 to 167.2,"CN(CCN(CCC12CC3CC(CC(C3)C1)C2)C(=O)NCCCc1ccncc1)S(C)(=O)=O [Compound No. 10-4, 1-[2-(1-Adamantyl)ethyl]-1-[2-[N-methyl-N-(methylsulfonyl)amino]ethyl]-3-[3-(4-pyridyl)propyl]urea]"
7,101.4 to 102.4,"CN(CCN(CCC12CC3CC(CC(C3)C1)C2)C(=O)NCCCc1ccncc1)C(=O)CC(C)(C)C [Compound No. 10-6, 1-[2-(1-Adamantyl)ethyl]-1-[2-[N-(3,3-dimethylbutyryl)-N-methylamino]ethyl]-3-[3-(4-pyridyl)propyl]urea]"
8,47 to 52,"CN(CCN(CCC12CC3CC(CC(C3)C1)C2)C(=O)NCCCc1ccncc1)C(=O)OC(C)(C)C(Cl)(Cl)Cl [Compound No. 10-10, 1-[2-(1-Adamantyl)ethyl]-1-[2-[N-(1,1-dimethyl-2,2,2-trichloroethoxycarbonyl)-N-methylamino}ethyl]-3-[3-(4-pyridyl)propyl]urea]"
9,101 to 102.59,"O=C(NCCCc1ccncc1)N(O)CCC12CC3CC(CC(C3)C1)C2 [Compound No. 12-1, 1-[2-(1-Adamantyl)ethyl]-1-hydroxy-3-[3-(4-pyridyl)propyl]urea]"
10,97.8 to 127,"CCCCCN(CCC12CC3CC(CC(C3)C1)C2)C(=O)NCCCc1cc[n+]([O-])cc1 [Compound No. 16-1, 4-[3-[3-[2-(1-Adamantyl)ethyl]-3-pentylureido]propyl]pyridine N-oxide]"
11,96.8 to 104.9,"CCNCCN(CCC12CC3CC(CC(C3)C1)C2)C(=O)NCCCc1ccncc1 [Compound No. 20-1, 1-[2-(1-Adamantyl)ethyl]-1-[2-(N-ethylamino)ethyl]-3-[3-(4-pyridyl)propyl]urea]"
12,103.5 to 104,"CCCCCN(CCC12CC3CC(CC(C3)C1)C2)C(=O)NCCC(=O)c1ccncc1 [Compound No. 31-1, 1-[2-(1-Adamantyl)ethyl]-3-[3-oxo-3-(4-pyridyl)propyl]-1-pentylurea]"
